The subject of assay [1] is recombinant endo-α-GalNAc-ase. To be noted: substance as sugar source 1.2 mM, TLC.
Method: The reaction system for measurement of transglycosylation activity was carried out by using the sugar chain donor Galβ1-3GalNAcα1-pNP at a final concentration of 2 mM, the acceptor 1-alkanol at a final concentration of 15% (v/v) and the purified enzyme (recombinant endo-α-GalNAc-ase) at a final concentration of 6.8 units/L in a 50 mM potassium phosphate buffer, pH 7.0.
In assay [2] the test system is recombinant endo-α-GalNAc-ase. Kind of assay: Transglycosylation into polypeptide (HPLC, MALDI-TOF-MS). In kind it is biochemical, Bifidobacterium longum JCM1217. To be noted: donor Galβ1-3GalNAcα1-pNP, sodium phosphate buffer pH 6, 37° C., one hour, HPLC product peak. The protocol: First, an enzymatic reaction of recombinant endo-α-GalNAc-ase purified in (7) was performed with Galβ1-3GalNAcα1-pNP as the sugar chain donor and peptide-T (see SEQ ID: 16), PAMP-12 (an amino acid sequence shown in SEQ ID: 17 with an amino group attached at C-end of the sequence) and bradykinin (see SEQ ID: 18) as the sugar chain acceptor.
That is, 10 μl of Galβ1-3GalNAcα1-pNP, 6 μl solution of each polypeptide as the acceptor and 1.5 μl of NaP (sodium phosphate) buffer (500 mM, pH 6) were mixed. The sugar chain donor, Galβ1-3GalNAcα1-pNP was used at a concentration of 10 mM, and for the peptide solution, each of 50 mM peptide-T, 50 mM bradykinin, and 10 mM PAMP-12 was used. A solution obtained by mixing was warmed up to 37° C., subsequently 2.5 μl of endo-α-GalNAc-ase (1.55 unit/ml) was added thereto, which was then incubated in a water bath at 37° C. for one hour. Subsequently, the enzyme was inactivated by boiling for 3 to 5 minutes.
Each reaction solution obtained in the aforementioned enzymatic reaction was applied to an HPLC analysis, and reaction products were analyzed and fractionated. […] UV (wavelength 214 nm) spectra were detected.
Detected results of each reaction solution for peptide-T, PAMP-12 and bradykinin are shown in FIGS. 5A, 5B and 5C, respectively.
The fractions fractionated by the aforementioned HPLC were analyzed by MALDI-TOF-MS. […]
Target sequence in this assay (as listed by the source): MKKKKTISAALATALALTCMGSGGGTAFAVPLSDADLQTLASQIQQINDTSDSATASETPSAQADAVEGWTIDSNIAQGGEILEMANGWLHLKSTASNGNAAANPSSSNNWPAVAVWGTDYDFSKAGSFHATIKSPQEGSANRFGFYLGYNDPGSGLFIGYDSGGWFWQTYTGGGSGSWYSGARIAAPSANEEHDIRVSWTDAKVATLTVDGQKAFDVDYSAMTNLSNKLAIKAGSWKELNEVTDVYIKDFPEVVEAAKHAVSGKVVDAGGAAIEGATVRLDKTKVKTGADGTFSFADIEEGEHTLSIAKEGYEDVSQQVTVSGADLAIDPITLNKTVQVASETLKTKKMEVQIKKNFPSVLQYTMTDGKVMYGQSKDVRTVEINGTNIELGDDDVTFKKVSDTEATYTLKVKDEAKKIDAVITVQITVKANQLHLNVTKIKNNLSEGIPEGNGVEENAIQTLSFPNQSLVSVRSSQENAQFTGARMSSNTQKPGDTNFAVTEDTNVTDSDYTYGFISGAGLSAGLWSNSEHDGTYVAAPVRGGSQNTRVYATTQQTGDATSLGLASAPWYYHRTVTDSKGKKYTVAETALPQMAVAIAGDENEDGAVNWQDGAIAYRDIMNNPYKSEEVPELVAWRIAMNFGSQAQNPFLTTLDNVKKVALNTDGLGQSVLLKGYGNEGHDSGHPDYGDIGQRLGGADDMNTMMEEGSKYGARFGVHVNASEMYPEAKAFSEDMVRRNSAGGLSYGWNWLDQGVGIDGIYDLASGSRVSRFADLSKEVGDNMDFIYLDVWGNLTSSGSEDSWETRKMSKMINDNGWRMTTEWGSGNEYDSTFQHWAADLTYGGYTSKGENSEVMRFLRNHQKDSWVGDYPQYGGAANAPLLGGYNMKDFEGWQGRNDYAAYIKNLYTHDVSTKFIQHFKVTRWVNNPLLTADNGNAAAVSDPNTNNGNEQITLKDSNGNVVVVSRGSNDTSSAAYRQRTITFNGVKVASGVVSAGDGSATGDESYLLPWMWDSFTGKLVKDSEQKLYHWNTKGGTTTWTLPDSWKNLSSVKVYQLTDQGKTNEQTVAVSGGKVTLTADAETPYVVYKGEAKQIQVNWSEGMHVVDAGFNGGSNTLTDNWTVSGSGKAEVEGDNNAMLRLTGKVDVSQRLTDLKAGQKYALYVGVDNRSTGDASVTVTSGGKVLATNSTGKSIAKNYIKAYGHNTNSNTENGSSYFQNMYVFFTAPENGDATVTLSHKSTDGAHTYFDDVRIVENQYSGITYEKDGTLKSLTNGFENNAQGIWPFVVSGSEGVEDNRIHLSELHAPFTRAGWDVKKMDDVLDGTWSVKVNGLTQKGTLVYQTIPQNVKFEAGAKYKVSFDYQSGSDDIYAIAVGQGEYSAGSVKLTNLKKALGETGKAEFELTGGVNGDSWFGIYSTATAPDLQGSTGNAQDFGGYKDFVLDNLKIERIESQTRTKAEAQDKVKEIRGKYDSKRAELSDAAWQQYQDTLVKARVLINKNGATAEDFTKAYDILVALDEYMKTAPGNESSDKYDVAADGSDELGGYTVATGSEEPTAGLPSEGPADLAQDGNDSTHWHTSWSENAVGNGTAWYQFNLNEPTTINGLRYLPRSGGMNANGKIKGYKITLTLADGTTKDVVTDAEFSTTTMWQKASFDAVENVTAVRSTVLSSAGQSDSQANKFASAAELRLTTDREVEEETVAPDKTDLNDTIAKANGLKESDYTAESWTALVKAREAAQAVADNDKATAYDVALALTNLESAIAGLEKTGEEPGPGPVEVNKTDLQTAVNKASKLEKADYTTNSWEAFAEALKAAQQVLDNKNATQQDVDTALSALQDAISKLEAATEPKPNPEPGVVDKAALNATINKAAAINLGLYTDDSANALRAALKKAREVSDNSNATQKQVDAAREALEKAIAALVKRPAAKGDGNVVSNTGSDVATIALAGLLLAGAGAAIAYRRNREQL

No end group written: not given here.

Consider `CC(=O)N[C@H]1C(O)O[C@H](CO)[C@H](O)[C@@H]1O[C@@H]1O[C@H](CO)[C@H](O)[C@H](O)[C@H]1O` (stereo partly drawn) [Galβ1-3GalNAc, galactosyl β1→3N-acetylgalactosamine], for which, in assay [1], the “Formation of product spot in reaction with methanol as acceptor (transglycosylation vs reverse hydrolysis)” value is listed as “not formed”.
The same measure, in the same setting: the same measure for `CC(=O)N[C@H]1[C@@H](Oc2ccc([N+](=O)[O-])cc2)O[C@H](CO)[C@H](O)[C@@H]1O[C@@H]1O[C@H](CO)[C@H](O)[C@H](O)[C@H]1O` [Galβ1-3GalNAcα1-pNP, galactosyl β1→3N-acetylgalactosaminyl α1-p-nitrophenol, reference compound]: “formed”.
For “PAMP-12: amino acid sequence shown in SEQ ID: 17 with an amino group attached at C-end; sugar chain acceptor (FRKKWNKWALSR-NH2; listed as Homo sapiens)”, the “Transfer of disaccharide (Gal-GalNAc) to the peptide acceptor” value in assay [2] is recorded as “disaccharide (Gal-GalNAc) had been transferred”.

(Values after patent US7445921B2, “Transglycosylation method and protein having transglycosylation activity” (priority 2004, dated 2008).)
